Test [1] concerns antibiotic-induced colitis. The test can be described thus: Antibiotic (clindamycin)-induced colitis in hamsters, in vivo. Details: species or system Male Syrian hamsters (LUG). The conditions noted are these: for activity in clindamycin-induced colitis: oral. Here is the method: Male Syrian hamsters (LUG), weighing 80 to 120 g, were each given a single dose of 175 mg/kg of clindamycin-phosphate or of clindamycin-hydrochlorideintraperitoneally, to induce colitis. Approximately seven hours after injection, the animals were given the test compound orally or intraperitoneally and the therapy was continued twice a day for a period of four more days. For oral administration, the […] was suspended in water or dissolved in dimethylsulfoxide and delivered to the animals by gavage using an oral intubating needle. The effect of the therapy was measured by use of the Hazard Ratio, which is the ratio of the mortality of the animals treated with the test inhibitor compound contained in a vehicle to the mortality of the animals treated with the vehicle containing none of the test inhibitor compound. The mortality was determined for the test inhibitor compound-treated groups and for the vehicle-treated groups, respectively, twice daily, and was evaluated by comparing the survival curves of each group. The Kaplan-Meier estimate of the survival curve was calculated for each group and the Mantel-Cox (logrank) test was used to compare the survival curve of each test inhibitor compound-treated (therapy) group to that of the corresponding vehicle control group. […]

Another test concerns guinea pig colon. Briefly: Carrageenan-induced colitis in guinea pigs, in vivo (water transport in distal colon). The conditions noted are these: oral. Details: species or system Male/female guinea pigs (Hartley). The text has this:
The guinea pig carrageenan-induced colitis biossay has been described by A. B. Onderdonk in Inflammatory Bowel Diseases, Martinus Nijhoff Publ., Boston, Mass., pages 126-134 (1982), and in Human Intestinal Microflora in Health and Disease (D. J. Hentger, ed.), Academic Press, New York, 1983, pages 447-479. The polysaccharide iotacarrageenan, derived from red seaweed, produces a colitis in guinea pigs that resembles ulcerative colitis in humans. Male/female guinea pigs (Hartley), weighing 400 to 650 g, were given a 3% solution of degraded carrageenan in their drinking water on a daily basis. After about 7 days, the animals began to develop diarrhea, ceased to gain weight and became lethargic. After the animals received carrageenan in this manner for 14 days, the diarrhea was quantified by measuring the water transport in the distal colon by single pass perfusion using 14C-polyethylene glycol 4000 (PEG 4000) as a marker. Control animals were given an aqueous drinking solution containing 3% mannitol in place of the carrageenan. Simultaneously, randomly selected animals from each of these two groups were treated orally with the test inhibitor compound, twice daily. […]

The subject of test [2] is myeloperoxidase of the rat colon. Briefly: Acetic acid-induced colitis in rats, in vivo (colonic myeloperoxidase). Further details: species or system Male rats (Sprague-Dawley). The conditions noted are these: oral. The text has this: The rat acetic acid-induced colitis biossay has been described by J. E. Krawisz, et al. in Amer. J. Proc. Gastro. Col. Rec. Surg. 31: 11-18 (1980), and by P. Sharon and W. F. Stenson in Gastroenterology 88: 55-63 (1985) and 86: 453-460 (1984). Acetic acid-induced colitis is characterized by the movement of inflammatory cells into the colon, with the number of such cells in the mucosa being measured by the activity of myeloperoxidase, a marker enzyme for these cells. Positive desirable activity is indicated by a reduction in the high levels of myeloperoxidase caused by acetic acid. Male rats (Sprague-Dawley), weighing 150 to 300 g, were pretreated twice daily for two days with either the vehicle (water, or dimethylsulfoxide) or the test inhibitor compound suspended in water or dissolved in dimethylsulfoxide and orally administered. […] Twenty four hours after the acetic acid treatment, the animals were sacrificed, the colonic mucosa was surgically removed and homogenized in an aqueous buffer at pH 6 with a Tissumizer or similar device, and myeloperoxidase was measured in the homogenate using o-phenylenediamine as a chromagen, as described by A. Voller, D. E. Bidwell and A. Bartlett in The Enzyme Linked Immunosorbent Assay (ELISA), Zoological Soc., London, 1979, pages 29-30. […]

The subject of the next test is LTC4. Briefly: Rat colon mucosa in vitro, short-circuit current: LTC4-induced electrolyte secretion. The conditions noted are these: six animals. The text has this:
(§1) The rat colon mucosa bioassay system is based on the measurement of changes in salt transport across the animal tissue due to absorption or secretion, using the standard short-circuit current technique described by Ussing, et al., Acta Physiol. Scand. 23: 110-127 (1951). Diarrhea is the most common symptom of gastrointestinal inflammation and is present in all types of inflammatory bowel disease. Pantera, et al., Ital. J. Gastroenterol. 13: 24-27 (1981); Sales, et al., Arch. Int. Med. 143: 294-299 (1983); Hodgson, Br. J. Clin. Pharmac. 14: 159-270 (1982). Diarrhea results from decreases in the salt absorption or increases in the salt secretion in the bowel and can be quantified in vitro by the above mentioned method of Ussing et al. In particular, a one-cm segment of colon is removed from animals weighing 200 to 250 g, exposed in vitro to leukotrienes or to bradykinin, which are inducers of salt secretion, and the resulting change in the net salt transport with and without the presence of 6-acetyl-7-[5-(4-acetyl-3 -hydroxy-2-propylphenoxy) pentyloxy]-3,4-dihydro-2H-1-benzopyran-2-carboxylic acid as an inhibitor is measured. Tissues were mounted in pairs in Ussing chambers and short-circuited with automatic voltage clamps (from the University of Iowa Bioengineering Department). A 15-minute period of equilibrium was allowed for the preparation to reach steady state. […]

The test system of another test is LTD4. The test can be described thus: Rat colon mucosa in vitro, short-circuit current: LTD4-induced electrolyte secretion. The conditions noted are these: six animals.
Description: as §1

The subject of a further test is LTB4. Briefly: Rat colon mucosa in vitro, short-circuit current: LTB4-induced electrolyte secretion. The conditions noted are these: six animals.
Description: as §1

The test system of a further test is LTE4. The test can be described thus: Rat colon mucosa in vitro, short-circuit current: LTE4-induced electrolyte secretion. The conditions noted are these: six animals.
Description: as §1

Setting [3] is: 10 mg/kg oral, in 0.15 ml water, >1.0 = prolongs survival vs. vehicle.

The results in this text go back to patent US5112856A, “Therapeutic treatment of intestinal inflammation by administration of 3,4-dihydro-2H-1-benzopyran derivatives” (Hoffmann-La Roche Inc., priority 1990, dated 1992).

As to `CCCc1c(OCC(O)COc2ccc3c(=O)cc(C(=O)O)oc3c2CCC)ccc(C(C)=O)c1O` (stereo not drawn) [Comparison 1, 7-[3-(4-acetyl-3-hydroxy-2-propylphenoxy)-2-hydroxypropoxy]-4-oxo-8-propyl-4H-1-benzopyran-2-carboxylic acid, reference compound], the “Hazard Ratio” value in test [1] (setting [3]) came out at 1.42; in test [1] (ip, 10 mg/kg), 2.02. Also, the “activity in clindamycin-induced colitis” value in test [1] (10 mg/kg) was “inactive”.
On to `O=C(O)c1cc(/N=N/c2ccc(S(=O)(=O)Nc3ccccn3)cc2)ccc1O` [sulfasalazine, reference compound], for which the “water transport in the colon” value with guinea pig colon (100 mg/kg, carrageenan-diseased animals (FIG. 4)) is on record as “restored the water transport in the colon of the diseased animals from a net secretory level to a level about that of the control animals”.
`O=C1CCN(c2ccccc2)N1` [phenidone, reference compound]: the “activity in reducing myeloperoxidase of the rat colon” value in test [2] (100 and 200 mg/kg (FIG. 2)) was “active”.
Turning to `CCCc1c(OCCCCCOc2cc3c(cc2C(C)=O)CCC(C(=O)O)O3)ccc(C(C)=O)c1O` (racemic) [6-acetyl-7-[5-(4-acetyl-3-hydroxy-2-propylphenoxy)pentyloxy]-3,4-dihydro-2H-1-benzopyran-2-carboxylic acid], the “% Inhibition Against Leukotrienes, LTC4” value came out at 9.5 ± 19.2% in the test on LTC4 (1 μM inhibitor) and 57.1 ± 19.7% in the test with LTC4 (10 μM inhibitor). Further, in test [2] (30 and 90 mg/kg (FIG. 3)), the “activity in reducing myeloperoxidase of the rat colon” value was “active”. Moreover, the “% Inhibition Against Leukotrienes, LTD4” value was 30.8 ± 15.4% in the test with LTD4 (1 μM inhibitor) and 62.4 ± 10.0% in the test with LTD4 (10 μM inhibitor). The “% Inhibition Against Leukotrienes, LTB4” value in the test on LTB4 (1 μM inhibitor) amounted to 44.4 ± 13.1%; in the test on LTB4 (10 μM inhibitor), 69.6 ± 11.9%. Besides, the “water transport rate in the colon” value with guinea pig colon (10 and 30 mg/kg, carrageenan-diseased animals (FIG. 5)) is given as “water transport rates about equal to that of the control animals”. Also, the entries for the “% Inhibition Against Leukotrienes, LTE4” value in the test on LTE4 (1 μM inhibitor) and in the test on LTE4 (10 μM inhibitor) were 29.8 ± 15.0% and 44.2 ± 9.8%, respectively. For the same compound, the “Hazard Ratio” value in test [1] (setting [3]) turned out to be 3.80; in test [1] (60 mg/kg intraperitoneal, in 0.075 ml PEG400, >1.0 = prolongs survival vs. vehicle), 4.77; in test [1] (60 mg/kg oral, in 0.15 ml water, >1.0 = prolongs survival vs. vehicle), 12.0; in test [1] (100 mg/kg oral, in 0.15 ml water, >1.0 = prolongs survival vs. vehicle), 64.2; in test [1] (ip, 10 mg/kg), 2.87. Further, the “edema, hemorrhaging, congestion, necrosis, focal erosions, inflammatory cell infiltration of cecum (and colon)” value in test [1] (60 or 100 mg/kg) is given as “In most cases these effects were reduced or abolished”. The diarrhea result in test [1] (clindamycin-treated hamsters) was “reduced the diarrhea”. Besides, the “histopathology of the cecum and colon” value in test [1] (clindamycin-treated hamsters) is “substantially benefited the histopathology of the cecum and colon”. In addition, the “survival of clindamycin-treated animals” value in test [1] (clindamycin-treated hamsters) is “prolonging the survival”. The “activity in clindamycin-induced colitis” value in test [1] (doses ranging from 10 to 100 mg/kg) was “active”.
On to `CCCc1c(OCCCOc2ccc3c(=O)cc(CCC(=O)O)oc3c2CCC)ccc(C(C)=O)c1O` [Comparison 2, 7-[3-(4-acetyl-3-hydroxy-2-propylphenoxy)propoxy]-4-oxo-8-propyl-4H-1-benzopyran-2-propanoic acid, reference compound], for which the “Hazard Ratio” value in test [1] (13 mg/kg oral, in 0.15 ml water, >1.0 = prolongs survival vs. vehicle) came out at 1.68. For the same compound, the “activity in clindamycin-induced colitis” value in test [1] (10 mg/kg) was “inactive”.
